We go through seven compounds from US6201147A, “Process for the resolution of esters of arylalkylcarboxylic acids” (BASF Aktiengesellschaft, priority 1998, dated 2001).

The target of experiment [1] is T1, Candida antarctica lipase (CAL-B, Chirazyme L-2) (Moesziomyces antarcticus, UniProt P41365).
T1 construct: purchased Boehringer Mannheim, Penzberg, Germany
T1 sequence (P41365 26-342): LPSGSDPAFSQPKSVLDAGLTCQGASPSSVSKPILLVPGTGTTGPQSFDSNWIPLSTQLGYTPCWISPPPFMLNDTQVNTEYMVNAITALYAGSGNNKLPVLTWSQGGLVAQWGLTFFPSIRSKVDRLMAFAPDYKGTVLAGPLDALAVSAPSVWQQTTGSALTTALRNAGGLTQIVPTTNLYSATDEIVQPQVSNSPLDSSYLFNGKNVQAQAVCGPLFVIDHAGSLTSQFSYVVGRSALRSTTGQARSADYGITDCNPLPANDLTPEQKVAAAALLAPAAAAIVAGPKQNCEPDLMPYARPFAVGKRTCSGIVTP
The experiment can be described thus: Lipase-catalyzed transesterification with n-hexanol in toluene. Format: biochemical. The settings on record: for equilibrium constant (value in brackets): transesterification of ethyl esters with n-hexanol, calculated according to Anthonsen et al. As for the experimental part:
(§1) If not described otherwise, the ^1 H-NMR spectra were recorded at 250.1 and 500.1 MHz and the ^13 C-NMR spectra at 62.9 and 125.7 MHz in CDCl3 using tetramethylsilane as an internal standard. In cases in which both the racemate and the enatiomeric pure compounds were synthesized, the racemate was used for the full characterization of the compound. […] The gas-chromatography (=GC) analyses were carried out with an Optima 5 column (25 m×0.25 mm; Macherey & Nagel, Duren, Germany) for the determination of the conversion and purity and with a heptakis-(2,3-di-O-acetyl-6-O-TBDMS) -β-cyclodextrin column (25 m×0.25 mm, Prof. W. A. Konig, University of Hamburg, Germany) for the determination of the enantiomeric excess. The immobilized lipase used was Candida antarctica lipase (Chirazyme L-2, c.-f., C2, 5000 U/g) from Boehringer Mannheim, Penzberg, Germany, if not described otherwise. The absolute configuration of the biotransformation products was determined by means of comparison with optically pure standards, which were prepared from the commercially obtainable optically pure carboxylic acids. The enantiomeric excess was calculated by comparison with literature values. The enantioselectivity was determined using the formula E=[ln{(1-c)×(1-ees)}]/[ln{(1-c)×(1+ees)}],
Lipase-catalyzed transesterification: 100 μl of the vinyl esters (0.52 mmol) and 560 μl of n-hexanol (4.49 mmol) were […] stirrer. The reaction was started by addition of 100 mg of CAL-B lipase (500 U) (see Scheme II). Samples were taken from the reaction, diluted with toluene and the lipase was removed by means of centrifugation. The samples were analyzed by GC using the Optima 5 column. After ending the reaction by filtration, product and unreacted substrate were purified by flash chromatography. The enantiomeric purities were determined by means of the specific rotation. In the case of the substrates (±)-3, (±) -4 and (±) -6, the optical purity was additionally determined by means of chiral GC. The ethyl esters were correspondingly reacted as a comparison experiment (see Scheme III). The hydrolysis of the ethyl esters was carried out as a further comparison experiment (see Scheme III).

Experiment [2] deals with T1, Candida antarctica lipase (CAL-B, Chirazyme L-2). The experiment can be described thus: Hydrolysis of the ethyl esters with pH-statting. Format: biochemical. The following applies: hydrolysis in phosphate buffer 50 mM, pH 7.5, 40° C., calculated according to Chen et al. As for the experimental part:
as §1
The hydrolysis of the ethyl esters was carried out with pH-statting. In general, 1 mmol of substrate (6-8) was taken up at 40° C. in 20 ml of phosphate buffer (50 mM, pH 7.5). 200 mg of CAL-B (1000 U) were added at the start of the reaction. The pH was kept constant through the reaction using 0.1 N NaOH. After consumption of base indicated a marked conversion of the substrate, unused substrate was removed by means of extraction with heptane. […] The organic phases were dried using Na2 SO4 and the enantiomeric excess was determined for all compounds by means of the specific rotation and for (±)-6 additionally by means of chiral GC.

In another experiment the target is T2, lipase CAL-B (Moesziomyces antarcticus, UniProt P41365).
T2 construct: purchased Boehringer Mannheim
T2 sequence (P41365 26-342): T1 sequence (P41365 26-342)
As to the kind of experiment: Lipase-catalyzed transesterification with methanol in toluene. Format: biochemical, Candida antarctica. The settings on record: 40° C., 5 hours, calculated from conversion and eep. As for the experimental part:
The racemic ibuprofen vinyl ester (209 mg, 0.90 mmol) and methanol (240 mg, 7.5 mmol) were disolved in 8 ml toluene and stirred at 40° C. The reaction was started by adding 416 mg of lipase CAL-B (L-2, c.f., C2, lyo.; Boehringer Mannheim). After 5 hours, the reaction was completed by filtering off the lipase, and the reaction mixture was analyzed by gas chromatography in a chiral column (2,3 di-O-methyl-6-O-pentyl-ε-cyclodextrin). The product and unreacted substrate were purified by flash chromatography on silica gel (developer: ligroin/diethyl ether 35:1). Conversion (GC): 40.5%; Yields: ibuprofen methyl ester 64 mg (0.29 mmol; 32%), eep =76% (GC); ibuprofen vinyl ester 98 mg (0.42 mmol, 47%), ees =[…] (calculated from conversion and eep). An E value of 12 is calculated from conversion and eep.

Setting [3] is: transesterification with n-hexanol in toluene, 40° C., CAL-B, calculated according to Chen et al.

As for `C=COC(=O)C(CC)c1ccccc1` (racemic) [(±)-3, Vinyl (±)-2-phenylbutyrate], the “E (enantioselectivity)” value in experiment [1] (setting [3]) is on record as > 100.

Turning to `C=COC(=O)C(C)c1ccccc1` (racemic) [(±)-4, Vinyl (±)-2-phenylpropionate], the “E (enantioselectivity)” value in experiment [1] (setting [3]) is 26.

With `C=COC(=O)CC(C)c1ccccc1` (racemic) [(±)-5, Vinyl (±)-3-phenylbutyrate], the results for the “E (enantioselectivity)” value in experiment [1] (transesterification with n-hexanol in toluene at room temperature (about 23° C.)) and in experiment [1] (setting [3]) were 23 and 13, respectively.

Regarding `CCOC(=O)C(CC)c1ccccc1` (racemic) [(±)-6, Ethyl (±)-2-phenylbutyrate], the entries for the “E (enantioselectivity)” value in experiment [2] and in experiment [1] (setting [3]) were 3.7 and 5.7, respectively. Besides, the “equilibrium constant (value in brackets)” value in experiment [1] (40° C.) is given as 110.

Take `CCOC(=O)C(C)c1ccccc1` (racemic) [(±)-7, Ethyl (±)-2-phenylpropionate]: the “E (enantioselectivity)” value in experiment [2] is listed as 3.5; in experiment [1] (setting [3]) it was 6.8. Also, in experiment [1] (40° C.), the “equilibrium constant (value in brackets)” value is given as 123.

Consider `CCOC(=O)CC(C)c1ccccc1` (racemic) [(±)-8, Ethyl (±) -3-phenylbutyrate], for which the “E (enantioselectivity)” value was 9 in experiment [2] and 4.9 in experiment [1] (setting [3]). Besides, in experiment [1] (40° C.), the “equilibrium constant (value in brackets)” value is recorded as 135.

As to `C=COC(=O)C(C)c1ccc(CC(C)C)cc1` (racemic) [ibuprofen vinyl ester], the E value at lipase CAL-B was 12.
